# According to publication PMC5867665, “Targeting Multiple Effector Pathways in Pancreatic Ductal Adenocarcinoma with a G-Quadruplex-Binding Small Molecule” (Journal of Medicinal Chemistry, 2018):
# Tests used:
# Assay type in all cases: cell-based, human
# MIA PaCa-2 cells = assay: RNA-seq gene expression, MIA PaCa-2; details: for 1/2-SBSRNA4 logFC MIA PaCa-2 / A1BG logFC MIA PaCa-2 / A1BG-AS1 logFC MIA PaCa-2 / A2LD1 logFC MIA PaCa-2 / A4GALT logFC MIA PaCa-2: 300 nM gemcitabine
# Text: (§1) CM03 is a potent G4 ligand, as shown by the FRET and quantitative binding experiments reported here. We therefore reasoned that the potent CM03 antiproliferative activity on PDAC cells could be mediated through a G4-targeting mechanism. To test this hypothesis, we determined whether transcriptome changes upon early CM03 treatment were correlated with G4 presence in promoters and/or gene bodies. […] The time and dose of CM03 treatment were selected to reveal initial but robust mRNA changes while minimizing chronic effects due to cell toxicity. In both cell lines, the number of genes with altered expression (as defined by >0.5 increase in Log 2 of fold change [Log2 FC], or < −0.5 decrease; false discovery rate [FDR] < 0.1) increased with duration of CM03 treatment. In PANC-1 cells 2165 genes at 6 h and 3977 genes at 24 h were seen to change, while in MIA PaCa-2 cells, 5306 genes changed at 6 h and 5477 genes at 24 h compared to untreated controls (Supporting Information, Table 1). […] To validate that the targeting of G4-containing genes is not a general feature of antiproliferative agents, we also examined the effects of the first-line therapeutic agent for PDAC, gemcitabine,[37] a potent antiproliferative DNA synthesis inhibitor whose mechanism of action is G4-independent and which remains a standard therapy option in advanced PDAC. Both cell lines were treated with a range of gemcitabine concentrations (Supporting Information, Figure 4, Table 4) for 6 or 24 h.
# (§2) The PDAC cell lines PANC-1 (ATCC, catalogue no. CRL-1469) and MIA PaCa-2 (ATCC, catalogue no. CRL-142) were maintained in DMEM (ThermoFisher, catalogue no. 11965092) supplemented with 10% (v/v) heat inactivated FBS (ThermoFisher) in a humidified atmosphere containing 5% CO2 at 37 °C. Cell lines were confirmed mycoplasma free by RNA-capture ELISA, and their genotypes were certified by STR profiling.
# (§3) PANC-1 (0.35 × 10^6 cells/well) and MIA PaCa-2 (1.5 × 10^6 cells/well) cell lines were seeded overnight in 60 mm plates. Next day, cells were treated with 400 nM CM03 for 6 and 24 h. For gemcitabine treatment, cells were treated for 6 and 24 h with DMSO or 30 nM, 100 nM, 300 nM, 1 μM, 3 μM, and 10 μM gemcitabine-HCL for PANC-1 cells and 30 nM, 300 nM, and 3 μM gemcitabine-HCl for MIA PaCa-2 cells. Total RNA was extracted using the Qiagen RNeasy Plus Mini Kit (ThermoFisher, catalogue no. 74134) as per the manufacturer’s instructions. RNA quality (RIN > 9.0) was checked with an Aligent 2100 bioanalyzer RNA 6000 Nano Chip, and RNA concentration was quantified using a Qubit fluorometer (ThermoFisher) and Qubit RNA HS Assay Kit (Qiagen, catalogue no. Q32852). RNA-seq libraries were then generated using the Illumina Truseq RNA HT (stranded mRNA) kit (Illumina, catalogue no. RS-122–2103) as per the manufacturer’s instructions and sequenced using an Illumina HiSeq4000.
# (§4) Fastq raw sequencing files were preprocessed using cutadapt[81] to remove sequencing adapters and low quality sequencing tails (options −q 10) and then aligned to the human genome (GRCh37/hg19) using tophat2[82] and using the UCSC gtf file provided by Illumina iGenomes as an annotation file (http://support.illumina.com/sequencing/sequencing_software/igenome.html). Gene counts were calculated using htseq-count[83] and the same gtf file. Differential expression analysis was done using the R package edgeR.[84] Differentially expressed genes were estimated independently for both cell lines (MIA PaCa-2 and PANC-1) and for the different time points (6 and 24 h) and were then intersected to inspect the common genes. The sequencing data is available at the GEO public functional genomics data repository (https://www.ncbi.nlm.nih.gov/geo/) as GSE105083. Details of the putative G4 sequence (PQs) analysis are given in the Supporting Information.
# PANC-1 cells = assay: RNA-seq gene expression, PANC-1; details: for 1/2-SBSRNA4 logFC PANC-1 / A1BG logFC PANC-1 / A1BG-AS1 logFC PANC-1 / A2LD1 logFC PANC-1 / A4GALT logFC PANC-1: 300 nM gemcitabine
# Text: as §1, §2, §3, §4
# [1] = system: PANC-1 and MIA PaCa-2 cells; assay: RNA-seq gene expression, genes common to PANC-1 and MIA PaCa-2
# Text: as §1, §2, §3, §4
# [2] = RNA-seq, 400 nM CM03, 6 h, both cell lines combined
# [3] = RNA-seq, 400 nM CM03, 24 h, both cell lines combined
smiles,measurement,setting,value
"Nc1ccn([C@@H]2O[C@H](CO)[C@@H](O)C2(F)F)c(=O)n1 [gemcitabine, reference compound]",1/2-SBSRNA4 logFC MIA PaCa-2,MIA PaCa-2 cells; 6 h,-0.2087
same,A1BG logFC MIA PaCa-2,MIA PaCa-2 cells; 6 h,0.04195
same,A1BG-AS1 logFC MIA PaCa-2,MIA PaCa-2 cells; 6 h,-0.914
same,A2LD1 logFC MIA PaCa-2,MIA PaCa-2 cells; 6 h,-0.1941
same,A4GALT logFC MIA PaCa-2,MIA PaCa-2 cells; 6 h,-0.8586
same,1/2-SBSRNA4 logFC MIA PaCa-2,MIA PaCa-2 cells; 24 h,-0.5295
same,A1BG logFC MIA PaCa-2,MIA PaCa-2 cells; 24 h,0.6604
same,A1BG-AS1 logFC MIA PaCa-2,MIA PaCa-2 cells; 24 h,-0.1194
same,A2LD1 logFC MIA PaCa-2,MIA PaCa-2 cells; 24 h,-0.3751
same,A4GALT logFC MIA PaCa-2,MIA PaCa-2 cells; 24 h,-0.2021
same,1/2-SBSRNA4 logFC PANC-1,"PANC-1 cells; RNA-seq, 6 h",0.2646
same,A1BG logFC PANC-1,"PANC-1 cells; RNA-seq, 6 h",-0.08914
same,A1BG-AS1 logFC PANC-1,"PANC-1 cells; RNA-seq, 6 h",0.1407
same,A2LD1 logFC PANC-1,"PANC-1 cells; RNA-seq, 6 h",-0.1053
same,A4GALT logFC PANC-1,"PANC-1 cells; RNA-seq, 6 h",0.005472
same,1/2-SBSRNA4 logFC PANC-1,"PANC-1 cells; RNA-seq, 24 h",0.6908
same,A1BG logFC PANC-1,"PANC-1 cells; RNA-seq, 24 h",-0.1465
same,A1BG-AS1 logFC PANC-1,"PANC-1 cells; RNA-seq, 24 h",1.012
same,A2LD1 logFC PANC-1,"PANC-1 cells; RNA-seq, 24 h",-0.7315
same,A4GALT logFC PANC-1,"PANC-1 cells; RNA-seq, 24 h",0.6241
"O=C1c2ccc3c4c(c(NCCN5CCCC5)cc(c24)C(=O)N1CCCN1CCOCC1)C(=O)N(CCCN1CCOCC1)C3=O [CM03, 2,7-bis(3-morpholinopropyl)-4-((2-(pyrrolidin-1-yl)ethyl)amino)benzo[lmn][3,8]phenanthroline-1,3,6,8(2H,7H)-tetraone]",genes changed in both cell lines,"[1]; 400 nM CM03, 6 h",1185
same,genes changed in both cell lines,"[1]; 400 nM CM03, 24 h",1917
same,KRAS mRNA expression,"[1]; RNA-seq, 400 nM CM03, 6 and 24 h, either pancreatic cell line",unaffected
same,A1BG combined_logFC.6h.both,[1]; [2],0.1086
same,A2LD1 combined_logFC.6h.both,[1]; [2],-0.2585
same,AAAS combined_logFC.6h.both,[1]; [2],-0.007867
same,AACS combined_logFC.6h.both,[1]; [2],0.04302
same,A1BG combined_logFC.24h.both,[1]; [3],-0.3316
same,A2LD1 combined_logFC.24h.both,[1]; [3],-0.03116
same,A4GALT combined_logFC.24h.both,[1]; [3],0.4104
same,AACS combined_logFC.24h.both,[1]; [3],-0.1174
same,1/2-SBSRNA4 Log FC ([6h] vs [Control]) MIA PaCa-2,"MIA PaCa-2 cells; 400 nM CM03, 6 h",0.2926
same,A1BG Log FC ([6h] vs [Control]) MIA PaCa-2,"MIA PaCa-2 cells; 400 nM CM03, 6 h",0.4876
same,A2LD1 Log FC ([6h] vs [Control]) MIA PaCa-2,"MIA PaCa-2 cells; 400 nM CM03, 6 h",-0.3929
same,AAAS Log FC ([6h] vs [Control]) MIA PaCa-2,"MIA PaCa-2 cells; 400 nM CM03, 6 h",-0.00561
same,AACS LogFC 6h MIA PaCa-2,"MIA PaCa-2 cells; 400 nM CM03, 6 h",0.2527
same,1/2-SBSRNA4 Log FC ([24h] vs [Control]) MIA PaCa-2,"MIA PaCa-2 cells; 400 nM CM03, 24 h",0.1438
same,A1BG Log FC ([24h] vs [Control]) MIA PaCa-2,"MIA PaCa-2 cells; 400 nM CM03, 24 h",-0.4265
same,A2LD1 Log FC ([24h] vs [Control]) MIA PaCa-2,"MIA PaCa-2 cells; 400 nM CM03, 24 h",0.03755
same,A4GALT Log FC ([24h] vs [Control]) MIA PaCa-2,"MIA PaCa-2 cells; 400 nM CM03, 24 h",0.6327
same,AAAS Log FC ([24h] vs [Control]) MIA PaCa-2,"MIA PaCa-2 cells; 400 nM CM03, 24 h",-0.483
same,AACS LogFC 24h MIA PaCa-2,"MIA PaCa-2 cells; 400 nM CM03, 24 h",-0.2395
same,number of genes with altered expression,"PANC-1 cells; 400 nM CM03, 6 h, PANC-1, Log2 FC >0.5 or < −0.5, FDR < 0.1",2165
same,number of genes with altered expression,"PANC-1 cells; 400 nM CM03, 24 h, PANC-1",3977
same,A1BG Log FC ([6h] vs [Control]) PANC-1,"PANC-1 cells; RNA-seq, 400 nM CM03, 6 h",-0.2704
same,A1BG-AS1 Log FC ([6h] vs [Control]) PANC-1,"PANC-1 cells; RNA-seq, 400 nM CM03, 6 h",-1.747
same,A2LD1 Log FC ([6h] vs [Control]) PANC-1,"PANC-1 cells; RNA-seq, 400 nM CM03, 6 h",-0.1242
same,AAAS Log FC ([6h] vs [Control]) PANC-1,"PANC-1 cells; RNA-seq, 400 nM CM03, 6 h",-0.01012
same,AACS logFC 6h PANC-1,"PANC-1 cells; RNA-seq, 400 nM CM03, 6 h",-0.1667
same,A1BG Log FC ([24h] vs [Control]) PANC-1,"PANC-1 cells; RNA-seq, 400 nM CM03, 24 h",-0.2368
same,A2LD1 Log FC ([24h] vs [Control]) PANC-1,"PANC-1 cells; RNA-seq, 400 nM CM03, 24 h",-0.09987
same,AAAS Log FC ([24h] vs [Control]) PANC-1,"PANC-1 cells; RNA-seq, 400 nM CM03, 24 h",-0.5132
same,AACS logFC 24h PANC-1,"PANC-1 cells; RNA-seq, 400 nM CM03, 24 h",0.00469
